{
  "source": "paper PMC11758220",
  "about": "“Identification of a Privileged Scaffold for Inhibition of Sterol Transport Proteins through the Synthesis and Ring Distortion of Diverse, Pseudo-Natural Products” (ACS Central Science, 2025)",
  "data": [
    {"target": "T1, Aster-A (Homo sapiens, UniProt Q96CP6)", "T1 construct": "endogenous in cells; host or cells: Jurkat cells", "T1 sequence (Q96CP6 1-724)": "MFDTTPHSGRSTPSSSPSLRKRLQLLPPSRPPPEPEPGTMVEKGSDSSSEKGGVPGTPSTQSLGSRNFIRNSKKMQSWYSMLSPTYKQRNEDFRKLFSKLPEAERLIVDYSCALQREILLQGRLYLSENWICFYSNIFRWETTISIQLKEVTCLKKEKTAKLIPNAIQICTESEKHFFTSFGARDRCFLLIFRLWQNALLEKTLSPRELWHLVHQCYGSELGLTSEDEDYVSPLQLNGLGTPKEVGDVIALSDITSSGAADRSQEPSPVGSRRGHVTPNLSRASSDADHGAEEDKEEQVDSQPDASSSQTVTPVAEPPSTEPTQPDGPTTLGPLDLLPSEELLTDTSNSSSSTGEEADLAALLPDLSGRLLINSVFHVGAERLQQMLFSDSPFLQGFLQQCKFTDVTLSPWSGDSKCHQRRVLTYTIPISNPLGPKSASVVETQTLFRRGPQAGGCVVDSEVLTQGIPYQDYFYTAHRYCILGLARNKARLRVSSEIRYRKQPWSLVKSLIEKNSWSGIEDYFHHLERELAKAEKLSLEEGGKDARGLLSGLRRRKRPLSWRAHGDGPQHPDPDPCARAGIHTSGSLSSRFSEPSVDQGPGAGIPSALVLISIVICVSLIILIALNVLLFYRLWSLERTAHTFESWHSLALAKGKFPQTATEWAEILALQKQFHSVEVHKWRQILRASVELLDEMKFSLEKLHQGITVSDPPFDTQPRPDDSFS", "experiment": "In-cell isothermal shift assay in intact Jurkat cells", "assay_type": "cell-based", "conditions": "10 μM, 1 h, heated to 50 °C, Western blot", "experimental": "Jurkat cells were cultured in RPMI 1640 GlutaMAX supplemented with 10% fetal bovine serum and 1% penicillin-streptomycin at 37 °C, 5% CO2.\nIn-cell thermal stability assay\nTo a 15 mL falcon tube were added 3 × 10^5 Jurkat cells in media and centrifuged at 300 × g for three minutes. The supernatant was aspirated, and the cells were resuspended in 4 mL media containing 0.1% DMSO. The cells were gently vortexed to avoid pelleting at 30 minutes intervals. After 1 h incubation at 37 °C and 5% CO2, the cells were washed twice with PBS and collected in 0.9 mL PBS and divided into eight aliquots, each 100 µL in PCR tubes. The aliquots were individually heated at different temperatures (Doppio 2 × 48 well Thermal cycler, VWR). After the heat treatment, 10 µL of PBS containing 4.4 %v/v NP-40 was added to each sample and cells were lysed by freeze-thaw four times. The cell lysates were transferred to 1.5 mL Eppendorf tubes and cen trifuged (Micro Star 30, VWR) at 25000 × g, 4 °C for 25 minutes. The cleared supernatants were collected and further analy sed […]\nIn-cell isothermal shift assay\nTo eight 15 mL falcon tubes were added 3 × 10^5 Jurkat cells in 1 mL of media per tube and incubated with indicated test compounds for one hour at 37 °C and 5% CO2. The cells were gently vortexed to avoid pelleting at 30 minutes intervals. After one hour incubation at 37 °C and 5% CO2, the cells were centrifuged at 300 × g for three minutes, washed once with PBS and centrifuged again at 300 × g for three minutes. The cells were then resuspended in 50 µL of PBS in PCR tubes. The samples were then heated at the given temperature (Eppendorf Mastercycler ep Gradie nt S). After the heat treatment, 5 µL of PBS containing 4.4 %v/v NP-40 were added to each sample and cells lysed by freeze-thaw four times. Finally, the cell lysates were completely transferred to 1.5 mL Eppendorf tubes and centrifuged (Micro Star 30, VMR) at 25000 × g, 4 °C for 25 minutes. The cleared supernatants were collected and further analysed by western blotting.\nSodium dodecyl sulfate-polyacrylamide gel electrophoresis and western blotting Sodium dodecyl sulfate-polyacrylamide gel electrophoresis (SDS-PAGE) experiments were carried out using 4-15% precast polyacrylamide gels (Bio-Rad) and run at a constant voltage of 100 V for ten minutes followed by 120 V for one hour. Semidry transfer onto a 0.2 µm nitrocellulose membrane was performed using Bio-Rad Trans-Blot Turbo Transfer System at 1.3 A for seven minutes. For chemiluminescent detection, membranes were blocked in 5% milk in TBST (tris -buffered saline with Tween; 137 mM NaCl, 19 mM Tris-base, 2.7 mM KCl and 0.1 %v/v Tween-20, blocking buffer) for one houre at room temperature. […]\nWestern blot quantification was performed using LI-COR Image Studio Lite. […]", "values": [
      {"smiles": "CC12CCC3CC1CCC21C(=Nc2ccc(N4CCOCC4)cc21)O3", "note": "(single isomer, unassigned; (-)) [(−)-19a]", "Stabilization of Aster-A toward thermal unfolding in intact Jurkat cells": "showed stabilization of Aster-A"},
      {"smiles": "CC(C)(C)OC(=O)N1CCN(c2ccc3c(c2)C24CCC5CC(CCC52C)OC4=N3)CC1", "note": "(stereo not shown) [Compound 19e]", "Stabilization of Aster-A toward thermal unfolding in intact Jurkat cells": "increased stabilization of Aster-A in intact cells"},
      {"smiles": "CC(C)Oc1ccc(C(=O)Nc2nc3c(s2)CN(C(=O)OC(C)(C)C)CC3)cc1", "note": "[Autogramin-2, reference compound]", "Stabilization of Aster-A toward thermal unfolding in intact Jurkat cells": "showed stabilization of Aster-A"},
      {"smiles": "C[C@]12CC[C@@H]3C[C@H]1CC[C@@]21C(=Nc2ccc(C(F)(F)F)cc21)O3", "note": "[Compound 15g]", "Stabilization of Aster-A toward thermal unfolding in intact Jurkat cells": "showed stabilization of Aster-A"}
    ]}
  ]
}
